According to PubChem BioAssay AID1963842 (Molecular Pharmacology Branch, DTP, NCI, 2024):

System: 677734-321-R-J1-PDC complex spheroid viability
Assay: Anticancer human tumor 677734-321-R-J1-PDC patient-derived soft tissue sarcoma cell line growth inhibition [POLQ]
Conditions: for IC50: curve of first compound; for viability, T/C: stronger effect = lower value
Method: Multicellular complex tumor spheroid response to Polymerase (POL) inhibitors (novobiocin, ART-558, RP6685) in combination with a variety of drugs and investigational agents in selected tumor cell lines
The POL inhibitors (novobiocin, ART-558, and RP6685) were evaluated both individually and in combination with standard of care and investigational anticancer small molecules within a complex spheroid model of solid tumors. . Complex spheroids include a stromal component modeled by human endothelial cells (HUVEC) and fibroblasts modeled by human mesenchymal stem cells (MSCs). The concentration ranges selected for each drug and investigational agent were based upon clinically achievable concentrations if the clinical Cmax of the agent was known.
Compounds. The drugs and investigational agents: novobiocin (NSC847541), ART-558 (NSC835418), RP-6685 (NSC848927), peposertib (NSC802822), ceralasertib (NSC780249), elimusertib (NSC800525), camonsertib (NSC841442), AZD-1390 (NSC803789), olaparib (NSC753686), talazoparib (NSC767125), rucaparib (NSC756644), sotorasib (NSC818433), MRTX-1133 (NSC836407), SN-38 (NSC673596), topotecan (NSC609699), epotoside (NSC141540), doxorubicin (NSC123127), gemcitabine (NSC613327), 5-fluorouracil (NSC19893), paclitaxel (NSC125973), vemurafenib (NSC761431), MSA-2 (NSC828583), SN-011 (NSC837082), adavosertib (NSC754352), prexasertib (NSC758257), carboplatin (NSC241240) and oxaliplatin (NSC266046), were obtained from the National Cancer Institute (NCI) Developmental Therapeutics Program Chemical Repository (21). The FDA-approved anticancer drug set is available from the Developmental Therapeutics Program at https://dtp.cancer.gov/organization/dscb/obtaining/. […] The stock solutions were prepared in dimethyl sulfoxide (DMSO, Sigma-Aldrich, St. Louis, MO, cat. D2650), except for the platinum compounds which were prepared in saline (Quality Biological, Gaithersburg, MD, cat. 114-055-101), at 800-fold the tested concentration and stored at -70 degrees C prior to their use. All drugs and investigational agents were tested over a range starting from a high concentration at or near the clinical Cmax and decreasing in half-log increments. If the clinical Cmax for an agent had not been determined, the highest concentration tested was 10 microM, except for SN-38, which was tested at a high concentration of 1 microM.
Cell Culture. All cells were maintained in an incubator at 37 degrees C and 5% CO2 with 95% humidity. The PDC lines were cultured according to standard operating procedures established by the NCI PDMR (https://pdmr.cancer.gov). Table 3 of the manuscript, lists the cell lines along with the number of the three cell types plated to form the mct-spheroids and media for tumor cell growth. After thawing, all PDC lines, except 997537-175-T-J1-PDC and 415267-285-R-J2-PDC, were cultured in Matrigel-coated flasks prepared with a working solution of 1X Ham's F-12 nutrient mix, without supplementation (Thermo Fisher Scientific, cat. 11765054), 100 U/mL penicillin-streptomycin (Thermo Fisher Scientific, cat. 15140122), and 2.5% Matrigel (Corning Inc., Corning, NY, cat. 354248) for the first three passages. The two PDC lines 997537-175-T-J1-PDC and 415267-285-R-J2-PDC were cultured on uncoated flasks. The 857933-349-R-J2-PDC line was cultured in 6C/Colon 1B media containing advanced DMEM/F-12 (Thermo Fisher Scientific, cat. 12634028), 10 mM HEPES (Thermo Fisher Scientific, cat. 15630080), 1X GlutaMAX supplement (Thermo Fisher Scientific, cat. 35050061), 0.1 mg/mL primocin (InvivoGen, San Diego, CA, cat. ant-pm-2), 10% defined fetal bovine serum, heat inactivated (HyClone Laboratories Inc., Logan, UT, cat. SH30070.03HI), 50% L-WRN conditioned media (ATCC, cat. CRL-3276), 1.25 mM N-Acetyl-L-cysteine (Sigma-Aldrich, cat. A9165), 10 mM nicotinamide (Sigma-Aldrich, cat. N0636), 1X B-27 supplement (Thermo Fisher Scientific, cat. 17504044), 1X N-2 supplement (Thermo Fisher Scientific, cat. […]

[1] = second compound 0.0316 µM, first compound 0.0316 µM
[2] = second compound 0.0316 µM, first compound 0.1 µM
[3] = second compound 0.0316 µM, first compound 0.316 µM
[4] = second compound 0.0316 µM, first compound 1 µM
[5] = second compound 0.0316 µM, first compound 3.16 µM
[6] = second compound 0.0316 µM, first compound 10 µM
[7] = second compound 0.1 µM, first compound 0.0316 µM
[8] = second compound 0.1 µM, first compound 0.1 µM
[9] = second compound 0.1 µM, first compound 0.316 µM
[10] = second compound 0.1 µM, first compound 1 µM
[11] = second compound 0.1 µM, first compound 3.16 µM
[12] = second compound 0.1 µM, first compound 10 µM
[13] = second compound 0.316 µM, first compound 0.0316 µM
[14] = second compound 0.316 µM, first compound 0.1 µM
[15] = second compound 0.316 µM, first compound 0.316 µM
[16] = second compound 0.316 µM, first compound 1 µM
[17] = second compound 0.316 µM, first compound 3.16 µM
[18] = second compound 0.316 µM, first compound 10 µM
[19] = second compound 1 µM, first compound 0.0316 µM
[20] = second compound 1 µM, first compound 0.1 µM
[21] = second compound 1 µM, first compound 0.316 µM
[22] = second compound 1 µM, first compound 1 µM
[23] = second compound 1 µM, first compound 3.16 µM
[24] = second compound 1 µM, first compound 10 µM
[25] = second compound 3.16 µM, first compound 0.0316 µM
[26] = second compound 3.16 µM, first compound 0.1 µM
[27] = second compound 3.16 µM, first compound 0.316 µM
[28] = second compound 3.16 µM, first compound 1 µM
[29] = second compound 3.16 µM, first compound 3.16 µM
[30] = second compound 3.16 µM, first compound 10 µM
[31] = second compound 10 µM, first compound 0.0316 µM
[32] = second compound 10 µM, first compound 0.1 µM
[33] = second compound 10 µM, first compound 0.316 µM
[34] = second compound 10 µM, first compound 1 µM
[35] = second compound 10 µM, first compound 3.16 µM
[36] = second compound 10 µM, first compound 10 µM
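Further: spheroids exposed to compounds for one week.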
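Wherever viability, T/C is given: 100% = vehicle DMSO treated spheroids.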

COc1cc(C2c3cc4c(cc3C(OC3OC5COC(C)OC5C(O)C3O)C3COC(=O)C23)OCO4)cc(OC)c1O (stereo unspecified) + Cc1cccc(N(C)C(=O)C2C(O)CCN2c2nc(C)cc(C(F)(F)F)c2C#N)c1
IC50 (second compound 0.0316 µM): 773 nM | IC50 (second compound 0.1 µM): 873 nM | IC50 (second compound 0.316 µM): 907 nM | IC50 (second compound 1 µM): 821 nM | IC50 (second compound 3.16 µM): 641 nM | IC50 (second compound 10 µM): 814 nM | viability, T/C [1]: 99.4% | viability, T/C [2]: 101% | viability, T/C [3]: 60.8% | viability, T/C [4]: 47% | viability, T/C [5]: 26.6% | viability, T/C [6]: 10.5% | viability, T/C [7]: 103% | viability, T/C [8]: 87.7% | viability, T/C [9]: 63.3% | viability, T/C [10]: 54.3% | viability, T/C [11]: 23% | viability, T/C [12]: 10.7% | viability, T/C [13]: 107% | viability, T/C [14]: 90.6% | viability, T/C [15]: 68.6% | viability, T/C [16]: 52.4% | viability, T/C [17]: 22.5% | viability, T/C [18]: 8.11% | viability, T/C [19]: 114% | viability, T/C [20]: 86.1% | viability, T/C [21]: 62.6% | viability, T/C [22]: 50.1% | viability, T/C [23]: 23.7% | viability, T/C [24]: 9.86% | viability, T/C [25]: 104% | viability, T/C [26]: 88.7% | viability, T/C [27]: 52% | viability, T/C [28]: 50.7% | viability, T/C [29]: 22% | viability, T/C [30]: 10.1% | viability, T/C [31]: 107% | viability, T/C [32]: 83.3% | viability, T/C [33]: 65.8% | viability, T/C [34]: 52.7% | viability, T/C [35]: 21.5% | viability, T/C [36]: 14.7%

Nc1ccn(C2OC(CO)C(O)C2(F)F)c(=O)n1 (stereo unspecified) + Cc1cccc(N(C)C(=O)C2C(O)CCN2c2nc(C)cc(C(F)(F)F)c2C#N)c1
IC50 (second compound 0.0316 µM): < 31.6 nM | IC50 (second compound 0.1 µM): < 31.6 nM | IC50 (second compound 0.316 µM): < 31.6 nM | IC50 (second compound 1 µM): < 31.6 nM | IC50 (second compound 3.16 µM): < 31.6 nM | IC50 (second compound 10 µM): < 31.6 nM | viability, T/C [1]: 38.5% | viability, T/C [2]: 15.2% | viability, T/C [3]: 14.2% | viability, T/C [4]: 14.7% | viability, T/C [5]: 14.9% | viability, T/C [6]: 10.1% | viability, T/C [7]: 43.5% | viability, T/C [8]: 15.1% | viability, T/C [9]: 13.7% | viability, T/C [10]: 15.4% | viability, T/C [11]: 15.8% | viability, T/C [12]: 11% | viability, T/C [13]: 31.8% | viability, T/C [14]: 22% | viability, T/C [15]: 14.1% | viability, T/C [16]: 16.9% | viability, T/C [17]: 12.4% | viability, T/C [18]: 10.8% | viability, T/C [19]: 30.9% | viability, T/C [20]: 18.4% | viability, T/C [21]: 14.3% | viability, T/C [22]: 15.4% | viability, T/C [23]: 19.6% | viability, T/C [24]: 12% | viability, T/C [25]: 35.2% | viability, T/C [26]: 14.9% | viability, T/C [27]: 14.6% | viability, T/C [28]: 13.5% | viability, T/C [29]: 13.3% | viability, T/C [30]: 13% | viability, T/C [31]: 39.8% | viability, T/C [32]: 17.3% | viability, T/C [33]: 15.3% | viability, T/C [34]: 13.7% | viability, T/C [35]: 13.3% | viability, T/C [36]: 12.2%

O=C(c1cc(Cc2n[nH]c(=O)c3ccccc23)ccc1F)N1CCN(C(=O)C2CC2)CC1 + Cc1cccc(N(C)C(=O)C2C(O)CCN2c2nc(C)cc(C(F)(F)F)c2C#N)c1
IC50 (second compound 0.0316 µM): > 10000 nM | IC50 (second compound 0.1 µM): > 10000 nM | IC50 (second compound 0.316 µM): > 10000 nM | IC50 (second compound 1 µM): > 10000 nM | IC50 (second compound 3.16 µM): > 10000 nM | IC50 (second compound 10 µM): > 10000 nM | viability, T/C [1]: 108% | viability, T/C [2]: 95.2% | viability, T/C [3]: 101% | viability, T/C [4]: 97.2% | viability, T/C [5]: 96.8% | viability, T/C [6]: 83% | viability, T/C [7]: 105% | viability, T/C [8]: 103% | viability, T/C [9]: 101% | viability, T/C [10]: 99.3% | viability, T/C [11]: 95.4% | viability, T/C [12]: 80% | viability, T/C [13]: 103% | viability, T/C [14]: 103% | viability, T/C [15]: 97.5% | viability, T/C [16]: 94.6% | viability, T/C [17]: 100% | viability, T/C [18]: 80.2% | viability, T/C [19]: 115% | viability, T/C [20]: 93.3% | viability, T/C [21]: 102% | viability, T/C [22]: 103% | viability, T/C [23]: 100% | viability, T/C [24]: 84.7% | viability, T/C [25]: 110% | viability, T/C [26]: 95.8% | viability, T/C [27]: 103% | viability, T/C [28]: 99.6% | viability, T/C [29]: 98.9% | viability, T/C [30]: 81.6% | viability, T/C [31]: 99.8% | viability, T/C [32]: 101% | viability, T/C [33]: 94.1% | viability, T/C [34]: 96.4% | viability, T/C [35]: 89.4% | viability, T/C [36]: 80.4%
